Values joined by “and” are separate entries in the source; they are usually repeats but may differ in a detail not shown here. Equal entries are not always repeated.
How the values were obtained:
Format in all cases: cell-based, human
H460 cells = test: Cell cycle analysis (PI, flow cytometry), H460; details: H460, IC90 doses
Procedure: (§1) After drug treatment, trypsinized and floating cells (2 × 10^6) were pooled, washed twice with ice-cold PBS and fixed in 70% (v/v) ethanol overnight at −20 °C. Cells were stained with propidium iodide (PI) (BD Biosciences, San Jose, CA, USA) and monitored by FACS Accuri C6 (BD Biosciences, San Jose, CA, USA).

[1] = tested on: active caspase-3 in H460 cells; test: Active caspase-3 flow cytometry, H460; details: H460, IC90 doses, 120 h
Procedure: (§2) Caspase-3 activity was determined using Alexa Fluor 647-conjugated anti-active caspase-3 antibody (BD Biosciences, San Diego, CA, USA) according to the manufacturer’s instructions. Briefly, HCT116 and H460 cells (1 × 10^6) were trypsinized, pelleted, washed twice with ice-cold PBS and fixed in Fixation Buffer for 20 min on ice. After fixation, cells were rinsed twice with Perm Wash Buffer, stained with Alexa Fluor 647-conjugated anti-active caspase-3 antibody for 30 min, rinsed with Perm Wash Buffer and analyzed by flow cytometry with FACS Accuri C6 (BD, San Jose, CA, USA).

[2] = tested on: active caspase-3 in HCT116 cells; test: Active caspase-3 flow cytometry, HCT116; details: HCT116, IC90 doses, 120 h
Procedure: as §2

[3] = tested on: MYC gene expression in H460 cells; test: RT-PCR MYC expression in H460; details: H460, IC90 doses; for relative mRNA level of MYC gene: with time of incubation up to 120 h
Procedure: (§3) HCT116, H460, CCD 841 CoN and MRC-5 cells after treatment with UAs were collected, washed twice with ice-cold PBS and resuspended in […] of PBS. mRNA was isolated using High Pure RNA Isolation Kit according to the manufacturer’s instructions (Roche, Basel, Switzerland). Briefly, cells were lysed in lysis-binding buffer and transferred to a filter tube. Contaminating DNA was removed by 15 min incubation of the filter tube with DNase I solution. The filter tube was washed once with buffer I and twice with buffer II, and after centrifugation, total RNA was eluted using the elution buffer. RNA concentration was determined by NanoDrop One (Thermo Scientific); 1 µg of RNA was reverse transcribed using Transcriptor First Strand cDNA Synthesis Kit according to the manufacturer’s instructions (Roche) in 20 µL of reaction containing 1 µg of RNA, […] anchored-oligo(dT)18Primer, 8 mM MgCl2, 20 U of Protector RNase Inhibitor, deoxynucleotide mix (1 mM each) and 22 U of Transcriptor Reverse Transcriptase. The reverse transcription reaction was carried out for 30 min at 55 °C and stopped by heating to 85 °C for 5 min and placing on ice. The cDNA solution was stored at −20 °C until use. Real-time polymerase chain reaction (PCR) was performed on 2 µL of cDNA using 0.2 µM forward and reverse primers on LightCycler® 480 using LightCycler® 480 SYBR Green I Master according to manufacturer’s instructions (Roche). Primers were designed using BLAST website. Their efficiency was checked, and they were ordered from Genomed (Warsaw, Poland). The sequences of primers were as follows: MYC set 1 forward primer, […]; MYC set 1 reverse primer, […]; MYC set 2 forward primer, […]; MYC set 2 reverse primer, […]; KRAS forward primer, […]; KRAS reverse primer, […]; reference gene, GAPDH forward primer ACCCACTCCTCCACCTTTG; and GAPDH reverse primer, CTCTTGTGCTCTTGCTGGG. Cycling conditions were as follows: 1 cycle for 7 min at 95 °C (preincubation), 45 cycles of amplification: 10 s at 95 °C (denaturation), 20 s at 62 °C (annealing), 30 s at 72 °C (extension), 1 cycle for obtaining melting curve and 1 cycle for 10 s at 40 °C (cooling). The results were standardized to the reference gene GADPH. The relative expression level of MYC and KRAS was quantified using comparative method […]. The results were obtained from three independent experiments, each of which was analyzed at least twice.

[4] = tested on: KRAS gene expression in H460 cells; test: RT-PCR KRAS expression in H460; details: H460, IC90 doses, with time of incubation up to 120 h
Procedure: as §3

HCT116 cells = test: Cell cycle analysis (PI, flow cytometry), HCT116; details: HCT116, IC90 doses; for cells with more than 4N DNA (polyploid): during the time of incubation (time not specified), control 10%; for cells in G2/M (4N DNA): during the treatment after accumulation at 24 h (time not specified)
Procedure: as §1

[5] = tested on: cleaved PARP in HCT116 cells; test: PARP cleavage flow cytometry, HCT116; details: HCT116, IC90 doses, up to 120 h
Procedure: PARP cleavage was determined using Alexa Fluor 647-conjugated anti-cleaved PARP antibody (BD Biosciences, San Diego, CA, USA) according to the manufacturer’s instructions. Briefly, HCT116 and H460 cells (1 × 10^6) were trypsinized, pelleted, washed twice with ice-cold PBS and fixed in Fixation Buffer for 20 min on ice. After fixation, cells were rinsed twice with Perm Wash Buffer, stained with Alexa Fluor 647-conjugated anti-cleaved PARP antibody for 30 min, rinsed with Perm Wash Buffer and analyzed by flow cytometry with FACS Accuri C6 (BD, San Jose, CA, USA).

SMILES	Poli (polyploid cells) (H460 cells; 24 h) [%]	cells in G1 (H460 cells; 24 h) [%]	cells in G2/M (H460 cells; 24 h) [%]	cells in S (H460 cells; 24 h) [%]	cells in Sub-G1 (H460 cells; 24 h) [%]	Poli (polyploid cells) (H460 cells; 72 h) [%]	cells in G1 (H460 cells; 72 h) [%]	cells in G2/M (H460 cells; 72 h) [%]	cells in S (H460 cells; 72 h) [%]	cells in Sub-G1 (H460 cells; 72 h) [%]	Poli (polyploid cells) (H460 cells; 120 h) [%]	cells in G2/M (H460 cells; 120 h) [%]	cells in S (H460 cells; 120 h) [%]	cells in Sub-G1 (H460 cells; 120 h)	cells with active caspase-3 [1] [%]	cells with active caspase-3 [2]	relative mRNA level of MYC gene [3]	relative amount of KRAS mRNA [4]	Poli (polyploid cells) (HCT116 cells; 24 h) [%]	cells in G1 (HCT116 cells; 24 h)	further results
CN(CCCNc1c2ccccc2nc2cccc([N+](=O)[O-])c12)CCCNc1ccc2ncn3c4ccccc4c(=O)c1c23 [Compound C-2028]	1.70 ± 0.42	32.92 ± 3.77	21.64 ± 4.23	32.74 ± 2.09	11.09 ± 3.80	2.11 ± 0.55	37.15 ± 4.13	19.21 ± 6.60	15.80 ± 2.33	25.45 ± 7.20	4.03 ± 0.95	28.98 ± 3.64	9.93 ± 2.46	26.84 ± 1.92% and 26.8%	44.9	34.8% and 40%	stayed at the similar level	remained almost at the same level	5.73 ± 0.93	24.89 ± 3.90%	cells in G1 (H460 cells; 120 h): 29.87 ± 2.31%; cells in G2/M (HCT116 cells; 24 h): 45.89 ± 3.13%; cells in S (HCT116 cells; 24 h): 19.33 ± 1.58%; cells in Sub-G1 (HCT116 cells; 24 h): 3.37 ± 0.69%; Poli (polyploid cells) (HCT116 cells; 72 h): 5.11 ± 1.54%; cells in G1 (HCT116 cells; 72 h): 28.63 ± 5.96%; cells in G2/M (HCT116 cells; 72 h): 21.02 ± 4.86%; cells in S (HCT116 cells; 72 h): 7.67 ± 2.54%; cells in Sub-G1 (HCT116 cells; 72 h): 36.97 ± 8.93%; Poli (polyploid cells) (HCT116 cells; 120 h): 5.73 ±2.33%; cells in G1 (HCT116 cells; 120 h): 25.39 ± 3.25%; cells in G2/M (HCT116 cells; 120 h): 26.26 ± 4.90%; cells in S (HCT116 cells; 120 h): 4.95 ± 1.90%; cells in Sub-G1 (HCT116 cells; 120 h): 37.46 ± 9.35% and 37.5% and 30%; cells with more than 4N DNA (polyploid) (HCT116 cells): 5%; cells in G2/M (4N DNA) (HCT116 cells): ~23%; cells with cleaved PARP [5]: approximately 10%
O=c1c2ccccc2n2cnc3ccc(NCCCN4CCN(CCCNc5c6ccccc6nc6cccc([N+](=O)[O-])c56)CC4)c1c32 [Compound C-2041]	1.78 ± 0.42	31.30 ± 2.48	23.89 ± 5.34	34.76 ± 4.78	8.43 ± 3.14	2.52 ± 0.71	42.86 ± 1.87	21.24 ± 2.69	16.09 ± 2.94	17.43 ± 2.40	2.30 ± 0.60	14.84 ± 4.06	11.59 ± 1.16	36.47 ± 3.18% and 36.5%	35.5	39.5% and 40%	1.65	remained almost at the same level	4.22 ± 2.00	28.75 ± 3.88% and 29%	cells in G1 (H460 cells; 120 h): 35.08 ± 3.65%; cells in G2/M (HCT116 cells; 24 h): 29.92 ± 4.56%; cells in S (HCT116 cells; 24 h): 25.97 ± 2.80% and 26%; cells in Sub-G1 (HCT116 cells; 24 h): 11.81 ± 1.94%; Poli (polyploid cells) (HCT116 cells; 72 h): 4.47 ± 2.13%; cells in G1 (HCT116 cells; 72 h): 22.16 ± 5.06%; cells in G2/M (HCT116 cells; 72 h): 14.29 ± 1.52%; cells in S (HCT116 cells; 72 h): 9.59 ± 2.24%; cells in Sub-G1 (HCT116 cells; 72 h): 48.83 ± 7.71%; Poli (polyploid cells) (HCT116 cells; 120 h): 4.64 ± 2.56%; cells in G1 (HCT116 cells; 120 h): 13.63 ± 3.71% and 13.6%; cells in G2/M (HCT116 cells; 120 h): 9.44 ± 3.88%; cells in S (HCT116 cells; 120 h): 3.25 ± 1.05%; cells with more than 4N DNA (polyploid) (HCT116 cells): 5%; cells with cleaved PARP [5]: approximately 10%
Cc1ccc([N+](=O)[O-])c2c(NCCCN(C)CCCNc3ccc4ncn5c6ccc(O)cc6c(=O)c3c45)c3ccccc3nc12 [Compound C-2045]	1.78 ± 0.33	32.25 ± 3.01	28.15 ± 2.14	26.56 ± 3.44	9.84 ± 4.46	2.05 ± 0.60	39.94 ± 4.65	20.87 ± 5.18	18.53 ± 5.99	18.66 ± 3.61	2.28 ± 1.33	21.49 ± 5.96	9.03 ± 1.37	42.42 ± 8.29% and 42.4%	51.6	39.3% and 40%	around 0.55	around 1.5	4.91 ± 2.33	24.61 ± 2.63%	drop of MYC mRNA level [3]: 50%; cells in G2/M (HCT116 cells; 24 h): 50.18 ± 2.39%; cells in S (HCT116 cells; 24 h): 16.33 ± 1.34%; cells in Sub-G1 (HCT116 cells; 24 h): 3.90 ± 0.83%; Poli (polyploid cells) (HCT116 cells; 72 h): 12.20 ± 1.85%; cells in G1 (HCT116 cells; 72 h): 28.51 ± 4.31%; cells in G2/M (HCT116 cells; 72 h): 34.06 ± 3.35%; cells in S (HCT116 cells; 72 h): 6.15 ± 0.70%; cells in Sub-G1 (HCT116 cells; 72 h): 17.38 ± 4.00%; Poli (polyploid cells) (HCT116 cells; 120 h): 15.17 ± 3.74%; cells in G1 (HCT116 cells; 120 h): 22.11 ± 2.54%; cells in G2/M (HCT116 cells; 120 h): 22.94 ± 2.48%; cells in S (HCT116 cells; 120 h): 4.56 ± 1.19%; cells in Sub-G1 (HCT116 cells; 120 h): 35.40 ± 5.84% and 35.4% and 30%; cells with more than 4N DNA (polyploid) (HCT116 cells): around 15%; cells in G2/M (4N DNA) (HCT116 cells): ~23%; cells with cleaved PARP [5]: approximately 10%

Reference: paper PMC8955938, “c-Myc Protein Level Affected by Unsymmetrical Bisacridines Influences Apoptosis and Senescence Induced in HCT116 Colorectal and H460 Lung Cancer Cells” (International Journal of Molecular Sciences, 2022)
